“Also recorded” adds a separate entry of the source. One block for each compound: values may come before it.
Key:
αSyn [1] = biological target: T1, αSyn (Homo sapiens, UniProt P37840); experiment: αSyn fibrillization assay (Thioflavin T fluorescence); assay type: biochemical; design: made in house; host or cells: E. coli BL21(DE3), pET-21d; settings: for impact on αSyn fibrillization (thioflavin fluorescence signal): compound at 300 μM, 70 μM αSyn, vs 0.5% DMSO control
Experimental: (§1) Fibrillization assays. Prior to each aggregation assay, purified αSyn at 5 mg/mL was treated with 6M guanidine and dialyzed 36 hours in a 3500 MW cutoff Slide-A-lyzer with three changes of 20 mM sodium phosphate and 100 mM NaCl pH 7.4 buffer. αSyn was centrifuged at 130,000 g for 40 minutes in a Beckman Ultracentrifuge to remove seeding species and supernatant used for assays. For initial testing, 60 mM compound in DMSO was diluted to 300 μM in 0.5% DMSO and controls contained equivalent DMSO concentrations. Assay samples contained 20 μM Thioflavin T, filtered through a 0.45 μm Acrodisc filter prior to each assay, 70 μM αSyn in 20 mM sodium phosphate and 100 mM NaCl pH 7.4. One teflon bead, (0.125″ PTFE, Grade 2 polished) was placed in each well of a 96 well black with clear bottom assay plate (Corning) in a total volume of 500 μL. The plate was sealed with Mylar and parafilm, placed at 37° C. in a Tecan F200Pro Plate Reader and shaken at an amplitude of 6 mm for 120 hours continuously except for a brief time during reading of the plate. Thioflavin T fluorescence was detected by excitation at 440 nm and reading emissions at 485 nm each 60 minutes throughout the assay. To generate αSyn seeds for the seeding assays, αSyn at 10 mg/mL was incubated with stirring at 43° C. for 24 hours followed by exhaustive sonication. 1% (by mass) of seeds were added to the fibrillization assay. Samples were plated in quadruplicate, and the replicates averaged for each experiment for plotted data. Data were analyzed in Excel using XL-fit sigmoidal model #600 and when normalized, comparing fluorescence values at 50 hours for compounds as a percentage of DMSO control.
α-Syn for the Fibrillization assay. Wildtype human αSyn was produced from a pET-21d plasmid (Millipore, Burlington, MA) in E. coli BL21(DE3) cells induced by addition of 1 mM […] and incubated at 16° C. overnight. Cells were harvested by centrifugation at 4,000×g for 10 minutes and stored at −80° C. Frozen cells expressing αSyn protein were resuspended in 50 mM Tris, pH 7.5, 1 mM TCEP, 1 mM EDTA, and 1 mM L-Methionine and lysed using a microfluidizer. Lysate was centrifuged at 7000×g for 0.5 hours at 21° C. The supernatant was boiled in a water bath for 15 minutes, cooled on ice and centrifuged at 45,000 g for 30 min. The supernatant was filtered through a 0.2 μm Corning filter and subjected to ion exchange chromatography using a Capto ImpRes Q (GE Healthcare, Upssala, Sweden) anion exchange (IEX) column at ambient temperature. The column was eluted with a gradient of 100 column volumes from 0 to 1M NaCl using an AKTA Explorer 100 Liquid Chromatography System (GE Healthcare, Uppsala, Sweden). Pure αSyn fractions were desalted to 50 mM KPO4, pH 7.5 and 50 mM NaCl using PD-10 columns (GE Healthcare, Chicago, IL) and concentrated to 5 mg/mL or 10 mg/ml (3K MWCO, Amicon Ultra, Millipore, Burlington, MA).
Statistical Analysis of compound activity in Fibrillization assays. For the analyses of compound activity in the αSyn fibrillization assay, the relative fluorescence unit (RFU) data obtained from compounds were compared to those of DMSO, to identify those that are statistically different from DMSO at various time points. Each experiment contained 4 replicates of each compound and of DMSO control. […] A repeated measures analysis of variance was performed on logarithmic transformed data using a linear mixed effects model which included Compound, Time, Replicate (Compound) and Compound*Time. The covariance structure across time that minimized the corrected Akaike Information Criterion (AICC) was used and the Kenward and Roger method was used to determine the appropriate degrees of freedom. Each compound mean was compared to the DMSO mean using Bonferroni multiplicity adjusted t-tests. Statistical analyses were conducted using the MIXED procedure in SAS 9.1 (SAS Institute Inc. Cary, NC, USA). Statistical significance refers to p-value<0.05.

αSyn [2] = experiment: Western analyses of αSyn levels in H4 cells; assay type: cell-based, human; settings: H4 cells transiently transfected with split Gaussia luciferase tagged αSyn, 150 μM
Experimental: All materials were purchased from Invitrogen (Carlsbad, CA) unless stated otherwise. Cell from a 6 well dish were washed twice with PBS and lysed with 250 μl of RIPA Lysis buffer with protease and phosphatase inhibitors (Sigma, St. Louis, MO). Lysates were incubated on a shaker for 15 minutes at 4° C. and spun down for 15 min. at 10,000 g. Total protein concentrations were determined by BCA assay (Thermo Fisher, Waltham, MA). 1 ml of media was collected and incubated with protease and phosphatase inhibitors and 50 μl of Ni-agarose beads to collect the His-tagged αSyn (Qiagen, Hilden, Germany) for 2 hrs at […]. Beads were centrifuged and washed in PBS. Cell samples and pelleted beads from the media were placed into Bolt LDS (lithium dodecyl sulfate) sample buffer with 20% β-mercaptoethanol and boiled for 15 min. 5-15 μg of sample (cells) and an equivalent fraction of media were electrophoresed on Bolt 4-12% Bis-Tris Plus gels with Bolt MES SDS running buffer and the Precision Plus Protein Dual Color Standards (Biorad, Hercules, CA) molecular weight markers. After electrophoresis, the separated proteins were transferred onto a 0.2 μm pore size PVDF membrane for 90 minutes at 400 mA and 4° C. in Bolt Transfer Buffer using BioRad midi transfer chambers. […] Membranes were scanned and quantitated using the Odyssey CLx Imaging System (LI-COR, Lincoln, NE). […]

αSyn [3] = biological target: T1, αSyn; experiment: seeded αSyn fibrillization assay (αSyn seeds added at initiation); assay type: biochemical; design: made in house; host or cells: E. coli BL21(DE3), pET-21d
Experimental: as §1, with “To generate αSyn seeds for the seeding assays, αSyn at 10 mg/mL was incubated with stirring at 43° C. for 24 hours followed by exhaustive sonication. 1% (by mass) of seeds were added to the fibrillization assay. Samples were plated in quadruplicate, and the replicates averaged for each experiment for plotted data.” left out

SMILES: CNC(=O)CN(C(=O)Cc1noc2ccccc12)C(C)c1ccc(Cl)cc1 (stereo not shown) [Compound 582032, 2-(benzo[d]isoxazol-3-yl)-N-(1-(4-chlorophenyl)ethyl)-N-(2-(methylamino)-2-oxoethyl)acetamide]
impact on αSyn fibrillization (thioflavin fluorescence signal) (αSyn [1]): inhibit fibrillization; also recorded: impair fibrillization

time at which activity is first seen in seeded fibrillization (αSyn [3]; seeded fibrillization, time in the incubation): ≤ 2 h
SMILES: CNC(=O)c1cc(O)ccc1N [Compound 576755, 2-amino-5-hydroxy-N-methylbenzamide]
impact on αSyn fibrillization (thioflavin fluorescence signal) (αSyn [1]): inhibit fibrillization; also recorded: impair fibrillization | inhibition of aggregation when used as control (αSyn [1]; over 30 synuclein fibrillization experiments): robust inhibition of aggregation in all assays | impact on cellular αSyn protein levels (αSyn [2]): no impact on αSyn levels | impact on seeded fibrillization (αSyn [3]; preformed αSyn fibrils/protofibrils added at initiation): blocks fibrillization; also recorded: anti-aggregation activity

SMILES: Cc1c(-c2csc(NC(C(N)=O)C3CCNCC3)n2)sc2ccccc12 (stereo not shown) [Compound 573437, 2-((4-(3-methylbenzo[b]thiophen-2-yl)thiazol-2-yl)amino)-2-(piperidin-4-yl)acetamide]
impact on αSyn fibrillization (thioflavin fluorescence signal) (αSyn [1]): missed by the more variable αSyn fibrillization assay

From patent US12553889B2, “Small molecules targeting the intrinsically disordered structural ensemble of α-synuclein protect against diverse α-synuclein mediated dysfunctions” (The Regents of the University of California, priority 2019, dated 2026)
